Test results published in patent US6846818B2, “Selective inhibitors of cyclooxygenase-2” (Pfizer Inc., priority 2002, dated 2005).

Legend:
COX-2 = molecular target: T1, COX-2 (Homo sapiens, UniProt P35354); experiment: Cell-based COX-2 inhibition (canine, feline or human assays); conditions: from IC50 COX-1 vs COX-2
T1 sequence (P35354 18-604): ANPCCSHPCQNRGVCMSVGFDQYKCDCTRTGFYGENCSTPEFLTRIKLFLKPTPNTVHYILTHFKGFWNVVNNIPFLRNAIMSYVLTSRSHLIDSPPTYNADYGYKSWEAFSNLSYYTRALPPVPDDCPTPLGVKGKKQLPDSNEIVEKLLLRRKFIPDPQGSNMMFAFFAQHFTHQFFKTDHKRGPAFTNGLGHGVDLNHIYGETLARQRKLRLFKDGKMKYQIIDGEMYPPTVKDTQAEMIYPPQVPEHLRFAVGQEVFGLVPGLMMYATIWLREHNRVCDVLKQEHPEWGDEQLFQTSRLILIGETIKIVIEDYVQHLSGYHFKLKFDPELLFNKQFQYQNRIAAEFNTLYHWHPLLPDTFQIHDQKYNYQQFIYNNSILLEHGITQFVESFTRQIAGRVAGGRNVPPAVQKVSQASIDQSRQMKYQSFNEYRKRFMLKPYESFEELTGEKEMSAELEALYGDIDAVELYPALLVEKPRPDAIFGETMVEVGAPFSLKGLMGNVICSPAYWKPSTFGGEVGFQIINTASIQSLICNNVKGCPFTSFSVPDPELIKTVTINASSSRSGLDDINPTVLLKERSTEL
Experimental: The human cell based COX-2 assay can be carried out as previously described (Moore et al., Inflam. Res., 45, 54, 1996). Confluent human umbilical vein endothelial cells (HUVECs, Morinaga) in a 96-well flat bottom plate can be washed with 80 ml of RPMI1640 containing 2% FBS and incubated with hIL-1β (final concentration 300 U/ml, R & D Systems) at 37° C. for 24 hours. After washing, the activated HUVECs can be incubateed with test compound (final concentration; 0.1 nM-1 μM) dissolved in DMSO (final concentration; less than 0.01%) at 37° C. for 20 minutes and stimulated with A23187 (final concentration […]) in Hanks buffer containing 0.2% BSA, 20 mM Hepes at 37° C. for 15 minutes. 6-Keto-PGF1α, stable metabolite of PGI2, in the supernatant can be quantitated by using a radioimmunoassay method (antibody; Preseptive Diagnostics, SPA; Amersham).
A canine histocytoma (macrophage-like) cell line from the American Type Culture Collection designated as DH82, can be used in setting up the protocol for evaluating the COX-2 inhibition activity of various test drug compounds. […] The EIA can be performed for prostaglandin E2 (PGE2) and the pg/mL concentration of PGE2 can be calculated from the standard line included on each plate. […] The results are averaged and a single COX-1:COX-2 ratio is calculated. […]

COX-1 = molecular target: T2, COX-1 (Homo sapiens, UniProt P23219); experiment: Cell-based COX-1 inhibition; conditions: assay/species not specified
T2 construct: endogenous in cells; host or cells: one of: human washed platelets, canine washed platelets, or feline/canine/human whole blood
T2 sequence (P23219 24-599): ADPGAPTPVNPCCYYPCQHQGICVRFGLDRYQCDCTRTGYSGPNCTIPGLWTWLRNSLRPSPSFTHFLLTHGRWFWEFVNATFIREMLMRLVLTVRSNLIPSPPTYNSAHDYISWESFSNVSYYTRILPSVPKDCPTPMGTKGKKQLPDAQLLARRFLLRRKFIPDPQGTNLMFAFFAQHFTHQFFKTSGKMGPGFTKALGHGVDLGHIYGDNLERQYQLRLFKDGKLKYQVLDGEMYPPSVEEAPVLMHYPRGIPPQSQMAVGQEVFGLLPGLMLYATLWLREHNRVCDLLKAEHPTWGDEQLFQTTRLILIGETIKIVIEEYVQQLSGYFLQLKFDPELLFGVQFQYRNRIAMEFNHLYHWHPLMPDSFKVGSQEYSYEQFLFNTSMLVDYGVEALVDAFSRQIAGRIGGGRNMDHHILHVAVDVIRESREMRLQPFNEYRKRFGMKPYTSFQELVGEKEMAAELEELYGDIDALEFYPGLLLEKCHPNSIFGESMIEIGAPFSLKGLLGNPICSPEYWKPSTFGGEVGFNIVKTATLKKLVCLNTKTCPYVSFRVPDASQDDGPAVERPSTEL
Experimental: Human peripheral blood obtained from healthy volunteers can be diluted to 1/10 volume with 3.8% sodium citrate solution. The platelet-rich plasma immediately obtained can be washed with 0.14 M sodium chloride containing 12 mM Tris-HCl (pH 7.4) and 1.2 mM EDTA. Platelets can then be washed with platelet buffer (Hanks buffer (Ca free) containing 0.2% BSA and 20 mM Hepes). Finally, the human washed platelets (HWP) can be suspended in platelet buffer at the concentration of 2.85×10^8 cells/ml and stored at room temperature until use. The HWP suspension (70 μl aliquots, final 2.0×10^7 cells/ml) can be placed in a 96-well U bottom plate and 10 μl aliquots of 12.6 mM calcium chloride added. […] The reaction can be stopped by addition of EDTA (final 7.7 mM) and TxB2 in the supernatant quantitated by using a radioimmunoassay kit (Amersham) according to the manufacturer's procedure.
Test drug compounds can be solubilized and diluted the day before the assay can be to be conducted with 0.1 mL of DMSO/9.9 mL of Hank's balanced salts solution (HBSS) and stored overnight at 4° C. […] The pg/mL of TXB2 can be calculated from the standard line included on each plate, from which it can be possible to calculate the percent inhibition of COX-1 and the IC50 values for the test drug compounds. […]
COX-2 selectivity can be determined by ratio in terms of IC50 value of COX-1 inhibition to COX-2 inhibition. […]

selectivity for COX-2 (COX-1/COX-2 IC50) (COX-2): no selectivity for COX-2 | IC50 (COX-1): > 150 µM
SMILES: Cc1cc(C)cc(NC(=O)N2C(=O)C(C(=O)c3cnccn3)c3cc(C)c(F)cc32)c1 (centres unmarked) [6-Fluoro-5-methyl-2-oxo-3-(pyrazine-2-carbonyl)-2,3-dihydro-indole-1-carboxylic acid (3,5-dimethyl-phenyl)-amide]
